Our source for the IC50 and Ratio IC50 values is ChEMBL document CHEMBL3232846, “Synthesis and discovery of highly functionalized mono- and bis-spiro-pyrrolidines as potent cholinesterase enzyme inhibitors” (Bioorg Med Chem Lett, 2014).

For test [1], the target named is Acetylcholinesterase (Electrophorus electricus, UniProt O42275). The test can be described thus: Inhibition of electric eel AChE using acetylthiocholine iodide as substrate preincubated for 15 mins by spectrophotometer analysis.
Acetylcholinesterase, sequence (O42275 whole entry): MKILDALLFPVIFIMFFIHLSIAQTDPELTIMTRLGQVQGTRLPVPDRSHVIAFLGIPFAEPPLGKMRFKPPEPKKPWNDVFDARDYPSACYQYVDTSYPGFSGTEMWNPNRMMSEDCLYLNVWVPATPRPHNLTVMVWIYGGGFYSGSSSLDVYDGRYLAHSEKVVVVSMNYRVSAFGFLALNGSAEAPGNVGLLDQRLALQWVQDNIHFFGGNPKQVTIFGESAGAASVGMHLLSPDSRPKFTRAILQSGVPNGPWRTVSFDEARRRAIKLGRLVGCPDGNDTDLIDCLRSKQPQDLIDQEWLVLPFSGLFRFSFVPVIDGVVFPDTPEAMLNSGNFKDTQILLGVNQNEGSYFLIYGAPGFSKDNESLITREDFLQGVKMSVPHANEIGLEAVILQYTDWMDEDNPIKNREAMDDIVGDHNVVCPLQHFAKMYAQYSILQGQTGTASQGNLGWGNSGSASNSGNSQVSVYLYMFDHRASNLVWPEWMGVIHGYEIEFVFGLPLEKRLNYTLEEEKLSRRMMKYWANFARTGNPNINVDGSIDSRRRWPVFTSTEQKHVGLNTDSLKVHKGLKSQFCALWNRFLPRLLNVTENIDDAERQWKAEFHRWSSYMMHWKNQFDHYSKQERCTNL
Test [2] in a line: Selectivity ratio of IC50 for electric eel AChE to IC50 for equine serum BChE.
Test [3] is described as follows: Selectivity ratio of IC50 for equine serum BChE to IC50 for electric eel AChE.
The target of test [4] is Cholinesterase (Equus caballus, UniProt P81908). The experiment in a line: Inhibition of equine serum BChE using S-butyrylthiocholine chloride as substrate preincubated for 15 mins by spectrophotometer analysis.
Cholinesterase, sequence (P81908 whole entry): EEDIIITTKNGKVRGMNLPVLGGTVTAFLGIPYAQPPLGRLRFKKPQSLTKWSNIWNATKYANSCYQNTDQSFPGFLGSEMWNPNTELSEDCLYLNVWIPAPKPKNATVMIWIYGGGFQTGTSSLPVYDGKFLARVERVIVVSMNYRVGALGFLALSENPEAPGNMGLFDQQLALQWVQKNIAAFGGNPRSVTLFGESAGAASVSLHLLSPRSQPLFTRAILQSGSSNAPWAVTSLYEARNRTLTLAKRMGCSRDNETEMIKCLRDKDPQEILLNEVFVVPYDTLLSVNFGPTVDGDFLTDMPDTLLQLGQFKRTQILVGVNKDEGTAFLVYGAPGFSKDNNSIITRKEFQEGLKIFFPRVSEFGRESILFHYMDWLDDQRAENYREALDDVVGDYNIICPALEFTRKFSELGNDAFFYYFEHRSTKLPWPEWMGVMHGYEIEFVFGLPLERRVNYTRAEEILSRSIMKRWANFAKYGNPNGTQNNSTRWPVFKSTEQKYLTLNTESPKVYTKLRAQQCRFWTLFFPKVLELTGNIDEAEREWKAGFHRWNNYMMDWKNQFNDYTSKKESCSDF

One may read the IC50 as the point on the concentration scale where inhibition reaches its midpoint. High values mean weaker potency, low ones greater potency. Take `C=CC(=O)N1C/C(=C\c2ccccc2)C(=O)C2(C1)C(c1ccccc1)C(c1ccccc1)NC21C(=O)Nc2ccccc21` (racemic): the values for the IC50 in test [1] and in test [4] were 4.57 µM and 12.3 µM, respectively. Further, the results for the Ratio IC50 in test [2] and in test [3] were 0.37 and 2.69, respectively.
Taken in the same sequence, the figures for `C=CC(=O)N1C/C(=C\c2ccccc2C)C(=O)C2(C1)C(c1ccccc1C)C(c1ccccc1)NC21C(=O)Nc2ccccc21` (racemic) were 10.2 µM, 21.8 µM, 0.47 and 2.13.
In the same order, the values of `C=CC(=O)N1C/C(=C\c2ccccc2OC)C(=O)C2(C1)C(c1ccccc1OC)C(c1ccccc1)NC21C(=O)Nc2ccccc21` (racemic) are 5.57 µM, 17.5 µM, 0.32 and 3.14.
Taken in the same sequence, the figures for `C=CC(=O)N1C/C(=C\c2ccccc2Cl)C(=O)C2(C1)C(c1ccccc1Cl)C(c1ccccc1)NC21C(=O)Nc2ccccc21` (racemic) were 1.68 µM, 22.2 µM, 0.08 and 13.2.
Consider `C=CC(=O)N1C/C(=C\c2ccccc2F)C(=O)C2(C1)C(c1ccccc1F)C(c1ccccc1)NC21C(=O)Nc2ccccc21` (racemic), for which the IC50 in test [1] came out at 2.27 µM; in test [4], 11.8 µM. Also, the Ratio IC50 in test [2] amounted to 0.19; in test [3] it was 5.18.
In the same order, the values of `C=CC(=O)N1C/C(=C\c2cccc([N+](=O)[O-])c2)C(=O)C2(C1)C(c1cccc([N+](=O)[O-])c1)C(c1ccccc1)NC21C(=O)Nc2ccccc21` (racemic) are 15.1 µM, 10.6 µM, 1.43 and 0.7.
In the same order, the values of `C=CC(=O)N1C/C(=C\c2ccc(Cl)cc2Cl)C(=O)C2(C1)C(c1ccc(Cl)cc1Cl)C(c1ccccc1)NC21C(=O)Nc2ccccc21` (racemic) are 6.16 µM, 27.1 µM, 0.23 and 4.4.
Taken in the same sequence, the figures for `C=CC(=O)N1C/C(=C\c2ccc(C)cc2)C(=O)C2(C1)C(c1ccc(C)cc1)C(c1ccccc1)NC21C(=O)Nc2ccccc21` (racemic) were 14.6 µM, 5.87 µM, 2.48 and 0.4.
On to `C=CC(=O)N1C/C(=C\c2ccc(Cl)cc2)C(=O)C2(C1)C(c1ccc(Cl)cc1)C(c1ccccc1)NC21C(=O)Nc2ccccc21` (racemic), for which the IC50 in test [1] was determined as 4.61 µM; in test [4] it was 8.75 µM. For the same compound, the results for the Ratio IC50 in test [2] and in test [3] were 0.53 and 1.9, respectively.
In the same order, the values of `C=CC(=O)N1C/C(=C\c2ccc(F)cc2)C(=O)C2(C1)C(c1ccc(F)cc1)C(c1ccccc1)NC21C(=O)Nc2ccccc21` (racemic) are 5.98 µM, 2.75 µM, 2.17 and 0.46.
In the same order, the values of `C=CC(=O)N1C/C(=C\c2cccc3ccccc23)C(=O)C2(C1)C(c1cccc3ccccc13)C(c1ccccc1)NC21C(=O)Nc2ccccc21` (racemic) are 2.07 µM, 13.8 µM, 0.15 and 6.65.
In the same order, the values of `O=C(C1CC(c2ccccc2)NC12C(=O)Nc1ccccc12)N1C/C(=C\c2ccccc2)C(=O)C2(C1)C(c1ccccc1)C(c1ccccc1)NC21C(=O)Nc2ccccc21` (racemic) are 20.8 µM, 26.3 µM, 0.79 and 1.27.
Take `Cc1ccccc1/C=C1\CN(C(=O)C2CC(c3ccccc3)NC23C(=O)Nc2ccccc23)CC2(C1=O)C(c1ccccc1C)C(c1ccccc1)NC21C(=O)Nc2ccccc21` (racemic): the results for the 50% inhibitory concentration (IC50) in test [1] and in test [4] were 30.5 µM and 29.1 µM, respectively. Also, the results for the Ratio IC50 in test [2] and in test [3] were 1.05 and 0.95, respectively.
In the same order, the values of `COc1ccccc1/C=C1\CN(C(=O)C2CC(c3ccccc3)NC23C(=O)Nc2ccccc23)CC2(C1=O)C(c1ccccc1OC)C(c1ccccc1)NC21C(=O)Nc2ccccc21` (racemic) are 9.15 µM, 32.1 µM, 0.28 and 3.51.
In the same order, the values of `O=C(C1CC(c2ccccc2)NC12C(=O)Nc1ccccc12)N1C/C(=C\c2ccccc2Cl)C(=O)C2(C1)C(c1ccccc1Cl)C(c1ccccc1)NC21C(=O)Nc2ccccc21` (racemic) are 11.3 µM, 17.6 µM, 0.64 and 1.56.
With `O=C(C1CC(c2ccccc2)NC12C(=O)Nc1ccccc12)N1C/C(=C\c2ccccc2F)C(=O)C2(C1)C(c1ccccc1F)C(c1ccccc1)NC21C(=O)Nc2ccccc21` (racemic), the IC50 in test [1] came to 7.45 µM; in test [4], 35.9 µM. The Ratio IC50 in test [2] is 0.21; in test [3] it was 4.81.
On to `O=C(C1CC(c2ccccc2)NC12C(=O)Nc1ccccc12)N1C/C(=C\c2cccc([N+](=O)[O-])c2)C(=O)C2(C1)C(c1cccc([N+](=O)[O-])c1)C(c1ccccc1)NC21C(=O)Nc2ccccc21` (racemic), for which the IC50 in test [1] amounted to 16.8 µM; in test [4], 17.6 µM. The Ratio IC50 turned out to be 0.95 in test [2] and 1.05 in test [3].
In the same order, the values of `O=C(C1CC(c2ccccc2)NC12C(=O)Nc1ccccc12)N1C/C(=C\c2ccc(Cl)cc2Cl)C(=O)C2(C1)C(c1ccc(Cl)cc1Cl)C(c1ccccc1)NC21C(=O)Nc2ccccc21` (racemic) are 8.61 µM, 26.3 µM, 0.33 and 3.06.
In the same order, the values of `Cc1ccc(/C=C2\CN(C(=O)C3CC(c4ccccc4)NC34C(=O)Nc3ccccc34)CC3(C2=O)C(c2ccc(C)cc2)C(c2ccccc2)NC32C(=O)Nc3ccccc32)cc1` (racemic) are 20.2 µM, 19.8 µM, 1.02 and 0.98.
With `O=C(C1CC(c2ccccc2)NC12C(=O)Nc1ccccc12)N1C/C(=C\c2ccc(Cl)cc2)C(=O)C2(C1)C(c1ccc(Cl)cc1)C(c1ccccc1)NC21C(=O)Nc2ccccc21` (racemic), the IC50 in test [1] is 12.3 µM; in test [4] it was 27.8 µM. Also, the figures for the Ratio IC50 in test [2] and in test [3] were 0.44 and 2.25, respectively.
In the same order, the values of `O=C(C1CC(c2ccccc2)NC12C(=O)Nc1ccccc12)N1C/C(=C\c2ccc(F)cc2)C(=O)C2(C1)C(c1ccc(F)cc1)C(c1ccccc1)NC21C(=O)Nc2ccccc21` (racemic) are 21.9 µM, 14.4 µM, 1.51 and 0.66.
Taken in the same sequence, the figures for `O=C(C1CC(c2ccccc2)NC12C(=O)Nc1ccccc12)N1C/C(=C\c2cccc3ccccc23)C(=O)C2(C1)C(c1cccc3ccccc13)C(c1ccccc1)NC21C(=O)Nc2ccccc21` (racemic) were 9.24 µM, 19.2 µM, 0.48 and 2.08.
